Laboratory results as given in patent US8840938B2, “Bioavailability enhancing composition” (priority 2011, dated 2014).
Like-named read-outs stand apart in the source and are kept apart here.

Assays:
TRPV1 = TRPV1 (Homo sapiens, UniProt Q8NER1); test: Scoville Heat Unit (SHU) as a measure of TRPV1 activation; details: for Adjusted SHU: SHU of pure agonist times percent agonist in the herb, totals per herb; for SHU of pure Agonist: pure TRPV1 agonist, per mg
Description: SHU as used herein as a measure of TRPV1 activation. SHU mg is calculated as the SHU of a TRPV1 agonist multiplied by the milligrams of the TRPV1 agonist in a compound.

[1] = cited from earlier work; for Peak theophylline plasma levels / levels of theophylline (absorption) / mean residence times of theophylline: rabbits, oral theophylline 20 mg/kg
[2] = concomitant ground capsicum fruit suspension

Sequence of TRPV1 (Q8NER1 whole entry, species assumed): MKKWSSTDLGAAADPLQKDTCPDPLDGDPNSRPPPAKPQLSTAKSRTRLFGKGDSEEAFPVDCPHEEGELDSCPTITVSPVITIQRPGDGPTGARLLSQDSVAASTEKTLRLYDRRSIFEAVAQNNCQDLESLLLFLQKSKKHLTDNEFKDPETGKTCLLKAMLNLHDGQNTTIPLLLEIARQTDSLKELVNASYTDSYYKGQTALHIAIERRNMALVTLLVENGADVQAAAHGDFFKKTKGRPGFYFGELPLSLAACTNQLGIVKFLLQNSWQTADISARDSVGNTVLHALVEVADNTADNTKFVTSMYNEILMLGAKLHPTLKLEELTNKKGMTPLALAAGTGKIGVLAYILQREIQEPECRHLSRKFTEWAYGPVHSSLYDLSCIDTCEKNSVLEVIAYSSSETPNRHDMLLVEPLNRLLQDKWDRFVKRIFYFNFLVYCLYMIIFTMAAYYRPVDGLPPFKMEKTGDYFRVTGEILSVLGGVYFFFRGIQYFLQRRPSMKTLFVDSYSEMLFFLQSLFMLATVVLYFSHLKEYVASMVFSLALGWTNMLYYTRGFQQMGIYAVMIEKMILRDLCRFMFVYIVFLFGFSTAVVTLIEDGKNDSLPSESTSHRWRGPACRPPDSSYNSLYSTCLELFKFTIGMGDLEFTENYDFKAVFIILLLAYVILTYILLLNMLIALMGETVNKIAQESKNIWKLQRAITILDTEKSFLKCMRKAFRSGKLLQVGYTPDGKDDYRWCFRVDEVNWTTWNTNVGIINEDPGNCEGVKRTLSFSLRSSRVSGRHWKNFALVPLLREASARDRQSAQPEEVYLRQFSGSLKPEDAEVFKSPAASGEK

Row | SMILES | Adjusted SHU (TRPV1) | SHU of pure Agonist (TRPV1) | also measured
1 | CCCCC[C@H](O)CC(=O)CCc1ccc(O)c(OC)c1 [Formulation 6-gingerol, 6-gingerol] | 3,600 SHU | 60,000 SHU | –
2 | CCCCC/C=C/C(=O)CCc1ccc(O)c(OC)c1 [Formulation 6-shogaol, 6-shogaol] | 9,600 SHU | 160,000 SHU | –
3 | COc1cc(CNC(=O)CCCC/C=C/C(C)C)ccc1O [capsaicin] | 40,000 SHU | 16,000,000 SHU | –
4 | Cn1c(=O)c2[nH]cnc2n(C)c1=O [theophylline] | – | – | Peak theophylline plasma levels [1, 2]: 8.78 ± 0.98 mg/L; levels of theophylline (absorption) [1, 2]: 138.32+/−17.27 mg H/liter; mean residence times of theophylline [1, 2]: 20.98+/−5.75 H; Peak theophylline plasma levels ([1]; without capsicum): 6.65 ± 0.76 mg/L; levels of theophylline (absorption) ([1]; without capsicum): 86.06+/−9.78 mg H/liter; mean residence times of theophylline ([1]; without capsicum): 14.94+/−2.97 H; theophylline plasma levels after second administration of capsicum suspension ([1]; second capsicum suspension 11 hours later, every rabbit): new rise
5 | C/C=C/C=C/C=C\CC/C=C/C(=O)NCC(C)(C)O [α-hydroxy-sanshool] | 619 SHU | 26,000 SHU | –
6 | C/C=C/C=C/C=C\CC/C=C/C(=O)NCC(C)C [α-sanshool] | 368 SHU | 80,000 SHU | –
7 | C/C=C/C=C/C=C/CC/C=C/C(=O)NCC(C)(C)O [β-hydroxy-sanshool] | 35 SHU | 13,000 SHU | –
8 | C/C=C/C=C/C=C/CC/C=C/C(=O)NCC(C)C [β-sanshool] | 49 SHU | 70,000 SHU | –
9 | C/C=C/C=C/C=C\CC/C=C/C=C/C(=O)NCC(C)C [γ-sanshool] | 209 SHU | 110,000 SHU | –
10 | C/C=C/C=C/C=C/CC/C=C/C=C/C(=O)NCC(C)C [δ-sanshool] | 22 SHU | 110,000 SHU | –
